The values below come from article PMC7467771, “Lipophilic Arginine Esters: The Gateway to Preservatives without Side Effects” (Molecular Pharmaceutics, 2020).

Read-outs that look alike come from different tables or passages of the source.

The test system of data set [1] is Bacillus subtilis ATCC 6633. The experiment in a line: disk diffusion method. As to conditions: test solution 10 mg mL^–1, disks about 6 mm, overnight 37 °C. The format is cell-based. The protocol: (§1) Following bacterial strains were used for antimicrobial susceptibility testing: Escherichia coli ATCC 25922, Staphylococcus aureus ATCC 29213, Bacillus subtilis ATCC 6633, and Enterococcus faecalis ATCC 19433, which were obtained from the American Type Culture Collection (ATCC, Virginia, USA).
(§2) The disk diffusion method was used for the initial assessment of the antimicrobial activity of Arg-esters. Mueller Hinton agar (MHA, Biomerieux) medium was prepared according to the manufacturer protocol and poured into Petri dishes. All testing microorganisms were dissolved in saline and set to a 0.5 McFarland standard turbidity. This corresponds to a bacterial concentration of 1.5 × 10^8 colony-forming units per milliliter (CFU mL^–1). The bacterial suspension was then swabbed over solidified MHA Petri dishes ensuring homogeneous distribution. The test solutions of Arg-OL, Arg-DT, BAC, and cetrimide were prepared in water with 10% (v/v) DMSO at a concentration of 10 mg mL^–1. Water with 10% (v/v) DMSO was used as a negative control. The diffusion disks of about 6 mm in diameter were prepared from Whatman filter paper. After immersing disks in the above-prepared test solutions, they were placed on MHA plates already swabbed with different bacteria. After overnight incubation of Petri dishes at 37 °C, clear zones of bacterial growth inhibition around disks were measured.
On the technique in general: Agar diffusion results depend on both activity and mobility in agar.

For data set [2], the system named is Escherichia coli ATCC 25922. The experiment in a line: disk diffusion method. In kind it is cell-based. As to conditions: test solution 10 mg mL^–1, disks about 6 mm, overnight 37 °C. How it is done:
as §1, §2

The subject of data set [3] is Enterococcus faecalis ATCC 19433. The experiment in a line: disk diffusion method. The format is cell-based. Particulars: test solution 10 mg mL^–1, disks about 6 mm, overnight 37 °C. The protocol: as §1, §2
Data set [4] concerns Staphylococcus aureus ATCC 29213. Kind of data set: disk diffusion method. The format is cell-based. As to conditions: test solution 10 mg mL^–1, disks about 6 mm, overnight 37 °C. How it is done: as §1, §2
Another data set concerns Caco-2 cells. Kind of data set: resazurin assay, cytotoxicity. The format is cell-based. Particulars: Caco-2, 4 h incubation; for EC50 (concentration causing 50% cell death): calculated from cell viability data. How it is done:
The resazurin assay was used to determine the cytotoxic potential of Arg-esters according to a previous method with some minor modifications.[15] Caco-2 cells were seeded in a 24-well cell culture plate at 25 000 cells per well density and kept in an incubator at 37 °C under a 95% relative humidity environment and 5% CO2 level. Minimum essential medium (MEM) supplemented with streptomycin (0.1 mg […]), penicillin (100 units […]), and fetal calf serum (FCS) 10% (v/v) was used for growing cells. During a growth period of 14 days, the medium was replaced every other day. On the day of the experiment, test solutions of Arg-OL and Arg-DT esters were prepared in 25 mM HBS (HEPES buffered saline) buffer (pH 7.4) in the concentration range of 1000–3000 μg mL^–1. For comparison, the same concentrations of BAC and cetrimide were also prepared in HBS. HBS without any addition was used as a positive control, and Triton X-100 (2%, v/v) in HBS was used as a negative control. The growth medium from all wells of the cell culture plate was removed, and cells were washed three times with HBS preheated at 37 °C. Each test solution and controls were then added to individual wells in a volume of 500 μL, and the cell culture plate was incubated under the same conditions. After 4 h, the solution from each well was removed, and cells were washed with HBS (pH 7.4) preheated at 37 °C. Then, 500 μL of resazurin (2.2 mM) per well was added and incubated for further 3 h under the same conditions. Afterward, the fluorescence of the supernatant from each well was measured at the excitation wavelength of 540 nm and an emission wavelength of 590 nm. Cell viability was calculated by the equation: [drawing 4]

In data set [5] the test system is Bacillus subtilis ATCC 6633. The experiment in a line: MIC testing by the microdilution method. The format is cell-based. As to conditions: microdilution, overnight 37 °C, tested 5000 to 5 μg mL^–1. How it is done: as §1
(§3) The MIC is the lowest concentration of a substance that leads to a clearly visible growth inhibition after a defined incubation period. To evaluate the MIC of Arg-DT, Arg-OL, BAC, and cetrimide, a microdilution test was performed according to the guidelines of the Clinical and Laboratory Standards Institute.[19] First of all, similarly, as for the disk diffusion test, microorganisms were dissolved in saline and set to a 0.5 McFarland standard turbidity. This corresponds to a bacterial concentration of 1.5 × 10^8 colony-forming units per milliliter (CFU mL^–1); 50 μL of the bacterial suspension was added to 10 mL of Mueller Hinton Bouillon (MHB, Becton Dickinson, New Jersey, USA). The stock solutions were prepared as follows: the test compounds Arg-OL, Arg-DT, BAC, and cetrimide were dissolved in water with 10% (v/v) DMSO at a concentration of 10 mg mL^–1. The obtained solutions were used to prepare serial dilutions. The tested concentration for each substance ranged from 5000 to 5 μg mL^–1. Each test sample was added to a flat-bottomed tissue plate well in the volume of 75 μL. The first well of the tissue plate containing 75 μL of water with 10% (v/v) DMSO instead of any test sample was used as a positive control. Finally, 75 μL of the bacterial suspension was added to each well, and the plates were incubated at 37 °C overnight.
(§4) Before measuring the optical density (OD), plates were shaken for 15 min at 250 rpm. The OD was measured using the Bio-Rad 680 microplate reader (Hercules, California, USA) at a wavelength of 490 nm. Inhibition of bacterial growth was defined as a reduction of growth for at least 5 log units. Experiments were performed three times under analogous conditions for each bacterial strain and each tested sample.
In general terms: In broth dilution the organism is exposed to a series of concentrations in liquid medium.

Data set [6] relates to Escherichia coli ATCC 25922. Kind of data set: MIC testing by the microdilution method. The format is cell-based. Particulars: microdilution, overnight 37 °C, tested 5000 to 5 μg mL^–1. The protocol:
as §1, §3, §4

Data set [7] deals with Enterococcus faecalis ATCC 19433. The experiment in a line: MIC testing by the microdilution method. The format is cell-based. As to conditions: microdilution, overnight 37 °C, tested 5000 to 5 μg mL^–1. The protocol: as §1, §3, §4
Data set [8] deals with Staphylococcus aureus ATCC 29213. Kind of data set: MIC testing by the microdilution method. The format is cell-based. Particulars: microdilution, overnight 37 °C, tested 5000 to 5 μg mL^–1. The protocol: as §1, §3, §4
For the next data set, the system named is red blood cells (RBC). Kind of data set: hemolysis study. Particulars: human RBC, 1 h, 37 °C, PBS pH 7.4. The format is cell-based. The protocol: The hemolysis test was performed with red blood cells (RBC) to evaluate the potential toxic effect of Arg-surfactants on human cells.[18] Human RBC concentrate was kindly donated by the Tirol Kliniken GmbH, Innsbruck, Austria, and stored at 4 °C until use. RBC concentrate (0.556 mL) was freshly diluted by adding sterile Dulbecco’s PBS (pH 7.4) (1.944 mL) before the test to obtain an equivalent amount of whole blood (EWB). Then EWB was 50 times diluted in sterile Dulbecco’s PBS (pH 7.4). The diluted blood on visual inspection was turbid and settled down upon leaving undisturbed, indicating no cell lysis. Arg-surfactant stock solutions were prepared in the concentration range of 10–5000 μg mL^–1 in PBS. For comparison, BAC and cetrimide solutions were prepared in the same concentration range in PBS. For the assay, 10 μL of each test sample was mixed with 190 μL of diluted blood, resulting in the testing final concentrations of 0.5–250 μg mL^–1. For the positive control, 10 μL of 20% v/v Triton X-100 and, for the negative control, 10 μL of sterile Dulbecco’s PBS were mixed with 190 μL of diluted blood. All samples and controls were incubated for 1 h at 37 °C with shaking. After centrifugation at 10 000 rpm for 60 s, aliquots of 100 μL were withdrawn from the supernatants and transferred to a 96-well plate. Absorbance was measured at a wavelength of 420 nm. The extent of hemolysis as a percentage was determined by using the following equation: [drawing 6]

The next data set relates to red blood cells. As to conditions: cited from earlier work.
Another data set relates to E. coli. As to conditions: against E. coli; cited from earlier work.
Data set [9] can be described thus: octanol/water partition coefficient (log P) by TNBS assay. As to conditions: octanol/water mixture 1:1 v/v; mean, n = 3. The format is physicochemical. How it is done:
Log P of Arg and both Arg-esters were determined using an already described method.[15] Each compound was dissolved in an octanol/water mixture (1:1, v/v). Afterward, octanol and water phases were separated by a high-speed mini centrifuge (Fisher Scientific, Illinois USA), and the concentration of each compound in each phase was determined by the TNBS assay. For this, a 50 μL volume from each phase was diluted 10 times with 0.1 M sodium bicarbonate (pH 8.5) containing 40% (v/v) isopropyl alcohol. After dilution, 250 μL of the TNBS reagent (0.01%, v/v) prepared in 0.1 M sodium bicarbonate (pH 8.5) was added to each sample that was incubated at 37 °C. After 2 h, the reaction was stopped by adding 250 μL of 10% (m/v) SDS and 125 μL of 1 M HCl. The absorbance of each sample was measured at 335 nm using a Spark multifunctional microplate reader (Tecan Austria, GmbH). The logarithm of the octanol/water absorbance ratio was expressed as log P for each sample.

As a reminder, the cell viability is a read-out of living cells in per cent, often relative to untreated cells. A lower cell viability goes with more harm to the cells. As for cetrimide [reference compound], the zones of inhibition is 19 mm in data set [1], 12 mm in [2], 19 mm in data set [3] and 19 mm in data set [4]. The cell viability in the data set on Caco-2 cells (all tested concentrations (1000–3000 μg mL^–1)) was less than 10%. Besides, the “EC50 (concentration causing 50% cell death)” value in the data set on Caco-2 cells is reported as 20 μg mL^–1. The minimum inhibitory concentration amounted to 5 μg mL^–1 in data set [5], 20 μg mL^–1 in [6], 5 μg mL^–1 in [7] and 5 μg mL^–1 in data set [8]. The “HC50 (concentration causing lysis of 50% red blood cells)” value in the data set with red blood cells (RBC) is listed as 23 μg mL^–1.

As for `CCCCCC(=O)N[C@@H](CCCNC(=N)N)C(=O)OC` [CAM, caproyl arginine methyl ester], the HC50 with red blood cells (reported in the literature) is on record as 38.5 μg mL^–1.

`CCCCCCCC(=O)N[C@@H](CCCNC(=N)N)C(=O)OCC` [Nα-octanoyl arginine ethyl ester]: the “MIC (not effective at the highest tested concentration)” value in the data set on E. coli is listed as more than 256 μg mL^–1.

Consider `CCCCCCCCCCCC(=O)N[C@@H](CCCNC(=N)N)C(=O)OC` [LAM, lauroyl arginine methyl ester], for which, in the data set with red blood cells, the HC50 is given as 20.8 μg mL^–1. Moreover, the MIC in the data set on E. coli was 128 μg mL^–1.

As usually defined, the logP is a log measure of how a compound divides between an organic and an aqueous phase. Turning to `N=C(N)NCCC[C@H](N)C(=O)O` [arginine, L-Arginine], the logP in data set [9] was -1.9.

As for “benzalkonium chloride [BAC, reference compound]”, the zones of inhibition came out at 23 mm in [1], 19 mm in [2], 20 mm in data set [3] and 21 mm in data set [4]. Further, the “EC50 (concentration causing 50% cell death)” value with Caco-2 cells was 20 μg mL^–1. The minimum inhibitory concentration in [5] is given as 5 μg mL^–1; in [6], 10 μg mL^–1; in data set [7] it was 5 μg mL^–1; in data set [8], 5 μg mL^–1.
